How the values were obtained:
[1] = Neuroprotective activity against 0.1 uM amyloid beta 42-induced toxicity in rat PC12 cells assessed as cell viability at 10 uM after 24 hrs by MTT assay; type: functional, PC-12
[2] = Neuroprotective activity against 0.1 uM amyloid beta 42-induced toxicity in rat PC12 cells assessed as cell viability after 24 hrs by MTT assay; type: functional, cell-based; details: PC-12, 24 h
[3] = Neuroprotective activity against 0.1 uM amyloid beta 42-induced toxicity in rat PC12 cells assessed as cell viability at 50 uM after 24 hrs by MTT assay; type: functional, PC-12

Row | Compound | Activity [1] [%] | EC50 [2] [µM] | Activity [3] [%]
1 | O=c1cc(-c2ccc(Oc3c(O)cc4oc(-c5ccc(O)cc5)cc(=O)c4c3O)cc2)oc2cc(O)cc(O)c12 [HINOKIFLAVONE] | 38.7 | – | –
2 | COc1ccc(-c2cc(=O)c3c(O)cc(OC)c(-c4cc(-c5cc(=O)c6c(O)cc(O)cc6o5)ccc4O)c3o2)cc1 [7'',4'''-dimethylamentoflavone] | 55.3 | – | –
3 | COc1ccc(-c2cc(=O)c3c(O)cc(OC)c(-c4cc(-c5cc(=O)c6c(O)cc(OC)cc6o5)ccc4OC)c3o2)cc1 | 49.9 | – | –
4 | COc1ccc(-c2cc(=O)c3c(O)cc(O)c(-c4cc(-c5cc(=O)c6c(O)cc(O)cc6o5)ccc4OC)c3o2)cc1 [ISOGINKGETIN] | 83.1 | 5.18 | –
5 | O=C(O[C@@H]1Cc2c(O)cc(O)cc2O[C@@H]1c1cc(O)c(O)c(O)c1)c1cc(O)c(O)c(O)c1 [EPIGALOCATECHIN GALLATE] | 49.5 | – | –
6 | COc1ccc(-c2cc(=O)c3c(O)cc(O)cc3o2)cc1-c1c(O)cc(O)c2c(=O)cc(-c3ccc(O)cc3)oc12 [BILOBETIN] | 44.7 | – | –
7 | COc1cc2oc(-c3ccc(O)cc3)cc(=O)c2c(O)c1-c1cc(-c2cc(=O)c3c(O)cc(O)cc3o2)ccc1O | 38.5 | – | –
8 | O=c1cc(-c2ccc(O)cc2)oc2c(-c3c(O)cc(O)c4c(=O)cc(-c5ccc(O)cc5)oc34)c(O)cc(O)c12 [CUPRESSUFLAVONE] | 31.7 | – | –
9 | O=c1cc(-c2ccc(O)c(-c3c(O)cc(O)c4c(=O)cc(-c5ccc(O)cc5)oc34)c2)oc2cc(O)cc(O)c12 [AMENTOFLAVONE] | 37.6 | – | –
10 | COc1cc2oc(-c3ccc(O)cc3)cc(=O)c2c(O)c1Oc1ccc(-c2cc(=O)c3c(O)cc(O)cc3o2)cc1 | 65.7 | – | –
11 | COc1ccc(-c2cc(=O)c3c(O)cc(O)cc3o2)cc1-c1c(OC)cc(O)c2c(=O)cc(-c3ccc(O)cc3)oc12 | 56.5 | – | –
12 | COc1cc(O)c2c(=O)cc(-c3ccc(Oc4c(OC)cc5oc(-c6ccc(O)cc6)cc(=O)c5c4O)cc3)oc2c1 | 55.5 | – | –
13 | O=c1cc(-c2ccc(O)cc2)oc2cc(O)cc(O)c12 [APIGENIN] | 41 | – | –
14 | COc1ccc(-c2cc(=O)c3c(O)cc(O)c(-c4cc(-c5cc(=O)c6c(O)cc(OC)cc6o5)ccc4O)c3o2)cc1 [PODOCARPUSFLAVONE B] | 76.4 | 10.8 | –
15 | COc1ccc(-c2cc(=O)c3c(O)cc(OC)c(-c4cc(-c5cc(=O)c6c(O)cc(OC)cc6o5)ccc4O)c3o2)cc1 [HEVEAFLAVONE] | 45.1 | – | –
16 | COc1ccc(-c2cc(=O)c3c(O)cc(O)c(-c4cc(-c5cc(=O)c6c(O)cc(O)cc6o5)ccc4O)c3o2)cc1 [PODOCARPUSFLAVONE A] | 49.3 | – | –
17 | COc1ccc(-c2cc(=O)c3c(O)cc(O)c(-c4cc(-c5cc(=O)c6c(O)cc(OC)cc6o5)ccc4OC)c3o2)cc1 [SCIADOPITISIN] | 83.1 | 9.84 | 100
18 | COc1cc(O)c2c(=O)cc(-c3ccc(OC)c(-c4c(OC)cc(O)c5c(=O)cc(-c6ccc(O)cc6)oc45)c3)oc2c1 | 65.3 | – | –
19 | COc1ccc(-c2cc(=O)c3c(O)cc(OC)c(-c4cc(-c5cc(=O)c6c(O)cc(O)cc6o5)ccc4OC)c3o2)cc1 [KAYAFLAVONE] | 80.5 | 5.29 | 100
20 | COc1cc(O)c2c(=O)cc(-c3ccc(OC)c(-c4c(O)cc(O)c5c(=O)cc(-c6ccc(O)cc6)oc45)c3)oc2c1 [GINKGETIN] | 59.8 | – | –
21 | COc1ccc(-c2cc(=O)c3c(O)cc(OC)c(-c4c(OC)cc(O)c5c(=O)cc(-c6ccc(OC)cc6)oc45)c3o2)cc1 | 46.7 | – | –
22 | COc1cc(O)c2c(=O)cc(-c3ccc(O)cc3)oc2c1-c1cc(-c2cc(=O)c3c(O)cc(O)cc3o2)ccc1O [SOTETSUFLAVONE] | 34.2 | – | –
23 | COc1cc(O)c2c(=O)cc(-c3ccc(O)c(-c4c(OC)cc(O)c5c(=O)cc(-c6ccc(O)cc6)oc45)c3)oc2c1 | 52.6 | – | –
24 | COc1cc(O)c2c(=O)cc(-c3ccc(O)c(-c4c(O)cc(O)c5c(=O)cc(-c6ccc(O)cc6)oc45)c3)oc2c1 [SEQUOIAFLAVONE] | 39.3 | – | –
